# Source: patent US11198731B2 (Exelixis, Inc., priority 2017, dated 2021)
# Experiments:
# CYP3A4 [1] = biological target: T1, CYP3A4 (Homo sapiens, UniProt P08684); assay: Clinical pharmacology study XL184-007 with the strong CYP3A4 inhibitor ketoconazole; assay type: in vivo; set-up: endogenous in cells; host or cells: healthy volunteers, in vivo; details: concurrent ketoconazole; single dose of cabozantinib in healthy volunteers
# Target sequence in this assay (P08684 whole entry): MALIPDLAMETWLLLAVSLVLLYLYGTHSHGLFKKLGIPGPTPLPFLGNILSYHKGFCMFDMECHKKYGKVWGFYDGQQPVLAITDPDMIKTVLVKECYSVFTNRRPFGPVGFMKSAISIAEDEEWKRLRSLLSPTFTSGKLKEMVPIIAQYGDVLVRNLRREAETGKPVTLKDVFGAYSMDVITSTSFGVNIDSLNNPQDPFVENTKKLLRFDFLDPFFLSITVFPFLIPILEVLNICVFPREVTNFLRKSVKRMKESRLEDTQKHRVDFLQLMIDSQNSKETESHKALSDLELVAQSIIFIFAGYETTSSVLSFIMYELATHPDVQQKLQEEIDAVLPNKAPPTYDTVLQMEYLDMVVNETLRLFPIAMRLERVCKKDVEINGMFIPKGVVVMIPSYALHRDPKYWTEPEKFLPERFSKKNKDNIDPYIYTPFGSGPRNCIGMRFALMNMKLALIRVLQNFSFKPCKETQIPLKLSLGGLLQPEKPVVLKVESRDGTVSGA
# CYP3A4 [2] = biological target: T1, CYP3A4; assay: Clinical pharmacology study XL184-006 with the strong CYP3A4 inducer rifampin; assay type: in vivo; set-up: endogenous in cells; host or cells: healthy volunteers, in vivo; details: concurrent rifampin; single dose of cabozantinib in healthy volunteers
# Target sequence in this assay (P08684 whole entry): as above
# [3] = system: previously-untreated advanced RCC of intermediate- or poor-risk; details: cited from earlier work
# CYP2C9 = CYP2C9 (Homo sapiens, UniProt P11712); assay: In vitro CYP substrate studies; assay type: in vitro ADME
# [4] = system: advanced RCC after prior VEGFR-TKI; details: cited from earlier work
# [5] = Time to steady state exposure of cabozantinib; assay type: in vivo, human; details: following first dose
# From the text: Events that generally have an early onset include hypocalcemia, hypokalemia, thrombocytopenia, hypertension, PPE, abdominal pain, mucosal inflammation, constipation, diarrhea, and vomiting. Adverse events should be managed with supportive car at the earliest signs of toxicity. Dose reductions and treatment interruptions should be considered. Dose reductions are recommended for events that, if persistent, could become serious or intolerable (Table 6-3).
# invasive prostate cancer = details: through a neutrophil mediated anticancer innate immune response; cited from earlier work
# [6] = system: metastatic triple-negative breast cancer; details: in vivo; cited from earlier work
# [7] = system: NSCLC without EGFR genetic alterations; details: cited from earlier work
# [8] = system: advanced RET-rearranged NSCLC; details: cited from earlier work
# [9] = Nonclinical GLP-compliant toxicology studies; assay type: in vivo
# From the text: The development of any new or progressive, unexplained neurological symptoms should be assessed for underlying causes.
# CYP1A1 = assay: In vitro induction of cytochrome P450 enzymes; assay type: in vitro ADME; details: high cabozantinib concentrations (30 μM)
# advanced NSCLC = details: cited from earlier work
# [10] = system: relapsed or refractory metastatic UC; details: cited from earlier work
# MC38-CEA tumor = details: mouse, in vivo; cited from earlier work
# [11] = system: advanced CRPC with bone metastases; details: cited from earlier work
# human plasma proteins = assay: Plasma protein binding; assay type: in vitro ADME
# CYP3A4 [12] = biological target: T1, CYP3A4; assay: In vitro CYP substrate studies; assay type: in vitro ADME
# Target sequence in this assay (P08684 whole entry, species assumed): as the sequence (P08684 whole entry) above
# [13] = system: CYP2D6, CYP2C8, CYP2C19, CYP2B6, or CYP1A2; details: human
# [14] = system: subjects with medullary thyroid cancer (MTC); assay: Placebo-controlled study of cabozantinib effect on QTc interval; assay type: in vivo, human
# From the text: A concentration-QTc relationship could not be definitively established. Changes in cardiac wave form morphology or new rhythms were not observed.
# P-glycoprotein = P-glycoprotein (Homo sapiens, UniProt P08183); assay: In vitro P-glycoprotein substrate and inhibition data; assay type: in vitro ADME
# [15] = Food effect on cabozantinib exposure; details: in vivo
# [16] = Effect of proton pump inhibitor esomeprazole on cabozantinib plasma PK; assay type: in vivo, human; details: healthy volunteers
# cytochrome P450 enzymes = assay: In vitro induction of cytochrome P450 enzymes; assay type: in vitro ADME
# [17] = system: murine colon carcinoma cell line (MC38-CEA); details: in vitro; cited from earlier work
# [18] = Cohort 1, 42 evaluable subjects
# P-glycoprotein, sequence (P08183 whole entry): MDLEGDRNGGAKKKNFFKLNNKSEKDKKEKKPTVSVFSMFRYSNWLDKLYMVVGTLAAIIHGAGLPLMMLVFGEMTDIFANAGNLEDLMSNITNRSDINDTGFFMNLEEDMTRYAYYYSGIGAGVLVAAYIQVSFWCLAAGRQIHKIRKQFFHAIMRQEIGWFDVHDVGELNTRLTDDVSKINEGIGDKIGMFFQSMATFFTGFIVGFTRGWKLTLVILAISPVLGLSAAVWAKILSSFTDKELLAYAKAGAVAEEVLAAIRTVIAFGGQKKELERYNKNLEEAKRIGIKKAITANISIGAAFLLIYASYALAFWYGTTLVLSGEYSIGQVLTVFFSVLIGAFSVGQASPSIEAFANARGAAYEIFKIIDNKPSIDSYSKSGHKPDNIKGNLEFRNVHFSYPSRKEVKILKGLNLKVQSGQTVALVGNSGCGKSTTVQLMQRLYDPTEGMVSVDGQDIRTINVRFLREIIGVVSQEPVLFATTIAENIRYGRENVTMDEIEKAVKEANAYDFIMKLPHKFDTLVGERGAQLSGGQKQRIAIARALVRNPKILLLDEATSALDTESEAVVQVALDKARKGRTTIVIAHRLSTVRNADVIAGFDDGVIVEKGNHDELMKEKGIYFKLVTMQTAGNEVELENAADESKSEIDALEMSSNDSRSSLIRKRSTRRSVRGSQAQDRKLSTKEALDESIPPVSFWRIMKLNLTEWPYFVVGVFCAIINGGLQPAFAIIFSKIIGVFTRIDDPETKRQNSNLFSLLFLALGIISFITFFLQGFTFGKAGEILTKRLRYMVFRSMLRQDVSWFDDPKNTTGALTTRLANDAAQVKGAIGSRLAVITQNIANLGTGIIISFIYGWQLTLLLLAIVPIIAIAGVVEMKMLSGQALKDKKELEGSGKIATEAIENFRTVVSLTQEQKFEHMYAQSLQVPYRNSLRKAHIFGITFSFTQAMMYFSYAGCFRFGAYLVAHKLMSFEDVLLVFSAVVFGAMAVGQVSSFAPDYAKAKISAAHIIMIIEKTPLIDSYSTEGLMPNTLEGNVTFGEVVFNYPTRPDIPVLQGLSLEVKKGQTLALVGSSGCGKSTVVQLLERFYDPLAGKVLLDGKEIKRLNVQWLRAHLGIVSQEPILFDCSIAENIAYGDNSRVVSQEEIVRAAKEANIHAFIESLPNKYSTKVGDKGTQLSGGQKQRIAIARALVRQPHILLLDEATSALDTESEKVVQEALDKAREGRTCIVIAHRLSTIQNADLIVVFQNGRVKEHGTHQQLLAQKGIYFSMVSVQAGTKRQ
# CYP2C9, sequence (P11712 whole entry, species assumed): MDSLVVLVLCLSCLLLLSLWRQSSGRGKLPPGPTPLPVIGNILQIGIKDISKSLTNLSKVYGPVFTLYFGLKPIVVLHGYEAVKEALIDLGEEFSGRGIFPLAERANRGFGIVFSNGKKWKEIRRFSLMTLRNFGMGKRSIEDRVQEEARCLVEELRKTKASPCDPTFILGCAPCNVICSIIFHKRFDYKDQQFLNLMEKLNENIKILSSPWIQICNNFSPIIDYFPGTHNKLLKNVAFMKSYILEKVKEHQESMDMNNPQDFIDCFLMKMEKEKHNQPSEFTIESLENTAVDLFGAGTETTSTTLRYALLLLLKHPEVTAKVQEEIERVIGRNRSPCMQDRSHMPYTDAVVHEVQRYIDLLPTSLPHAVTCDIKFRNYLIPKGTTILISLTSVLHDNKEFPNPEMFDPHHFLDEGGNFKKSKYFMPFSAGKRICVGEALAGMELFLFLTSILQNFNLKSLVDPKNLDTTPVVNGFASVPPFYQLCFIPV
smiles,measurement,setting,value
"COc1cc2nccc(Oc3ccc(NC(=O)C4(C(=O)Nc5ccc(F)cc5)CC4)cc3)c2cc1OC [cabozantinib, N-(4-{[6,7-bis(methyloxy)quinolin-4-yl]oxy}phenyl)-N′-(4-fluorophenyl)cyclopropane-1,1-dicarboxamide]",Increase in cabozantinib exposure (AUC values),CYP3A4 [1],38%
same,Reduction in cabozantinib exposure (AUC values),CYP3A4 [2],approximately 77%
same,Discontinued study treatment due to an AE,[3]; 16 subjects in each arm,20%
same,Adverse events of ≥Grade 3 regardless of causality,[3]; % of subjects,68%
same,Reduction of the rate of disease progression or death,[3]; compared with sunitinib,34%
same,Median OS,[3]; in vivo,26.6 months
same,Median PFS per IRC,[3]; in vivo,8.6 months
same,Median PFS per investigator,[3]; in vivo,8.2 months
same,≥Grade 3 AE: PPE,[3]; in vivo,8%
same,≥Grade 3 AE: diarrhea,[3]; in vivo,10%
same,≥Grade 3 AE: fatigue,[3]; in vivo,6%
same,≥Grade 3 AE: hematological events,[3]; in vivo,2%
same,≥Grade 3 AE: hypertension,[3]; in vivo,28%
same,CYP2C9 substrate status,CYP2C9,weak substrate
same,Dose reductions from 60 mg to 40 mg,[4]; % of subjects,60%
same,Further dose reductions from 40 mg to 20 mg,[4]; % of subjects,20%
same,Treatment discontinuations due to AEs,[4]; incidence in each arm,10%
same,Time to steady state exposure,[5],approximately 2 weeks
same,Effect on invasive prostate cancer,invasive prostate cancer,rapid elimination of invasive prostate cancer
same,CD14+ monocytes,[6],persistent decrease
same,Fraction of circulating CD3+ T lymphocytes,[6],persistent increase
same,Estimated median OS,[7]; in vivo,9.2 months
same,ORR,[7]; in vivo,11%
same,PFS,[7]; second or third line treatment,4.3 months
same,Grade 3 or 4 AE: diarrhea,[7]; single-agent cabozantinib,8%
same,Grade 3 or 4 AE: fatigue,[7]; single-agent cabozantinib,15%
same,Grade 3 or 4 AE: hypertension,[7]; single-agent cabozantinib,25%
same,Grade 3 or 4 AE: oral mucositis,[7]; single-agent cabozantinib,10%
same,Grade 3 or 4 AE: thromboembolic event,[7]; single-agent cabozantinib,8%
same,Overall response rate (ORR),[8]; RET-rearranged NSCLC,28%
same,Grade 3 treatment-related AE: decreased platelet count,[8]; in vivo,8%
same,Grade 3 treatment-related AE: hypophosphataemia,[8]; in vivo,8%
same,Grade 3 treatment-related AE: increased ALT,[8]; in vivo,8%
same,Grade 3 treatment-related AE: increased AST,[8]; in vivo,8%
same,Grade 3 treatment-related AE: lipase elevation,[8]; in vivo,15%
same,Median OS,[8]; in vivo,9.9 months
same,Median PFS,[8]; in vivo,5.5 months
same,Treatment-related deaths,[8]; in vivo,No treatment-related deaths
same,Risk of adverse neurological effects,[9],minimal risk of adverse neurological effects
same,Induction of CYP1A1,CYP1A1,possible induction
same,ORR,"advanced NSCLC; 60 subjects, single agent",10%
same,Stable disease as best response,advanced NSCLC; % of subjects,48.3%
same,Objective response rate (ORR),"advanced NSCLC; heavily pre-pretreated unselected NSCLC, early phase clinical trials",approximately 10%
same,Median PFS,advanced NSCLC; in vivo,4.0 months
same,Number of PRs,[10]; [18],7
same,Number of complete responses (CR),[10]; [18],1
same,ORR,[10]; [18],19.1%
same,Median OS,[10]; Cohort 1,8.0 months
same,Median PFS,[10]; Cohort 1,3.7 months
same,Cabozantinib-related Grade 4 AE: hypomagnesemia,[10]; all cohorts (n=67),3%
same,Cabozantinib-related Grade 4 AE: lipase increased,[10]; all cohorts (n=67),1%
same,Grade 3 AE related to cabozantinib: hypertension,[10]; all cohorts (n=67),7%
same,Grade 3 AE related to cabozantinib: hypophosphatemia,[10]; all cohorts (n=67),6%
same,Grade 3 AE related to cabozantinib: fatigue,"[10]; all cohorts (n=67), most frequent (5% incidence)",9%
same,Immunosuppressive Treg lymphocytes following treatment,[10]; in vivo,reductions
same,Peripheral CD8+ T-cell counts,MC38-CEA tumor,increased
same,Regulatory T-cells (Tregs) and myeloid-derived suppressor cells (MDSCs),MC38-CEA tumor,decreased
same,Treg suppressor activity,MC38-CEA tumor,decreased
same,Proportion of subjects with a bone scan response (BSR) per IRC,[11]; at Week 12,42%
same,Median PFS per investigator,[11]; exploratory endpoint,5.6 months
same,Median duration of BSR,[11]; in vivo,5.8 months
same,Median duration of OS (Kaplan-Meier),[11]; in vivo,11.0 months
same,Bound to human plasma proteins,human plasma proteins,99.7%
same,CYP3A4 substrate status,CYP3A4 [12],CYP3A4 substrate
same,"CYP2D6, CYP2C8, CYP2C19, CYP2B6, CYP1A2 substrate status",[13],"not a CYP2D6, CYP2C8, CYP2C19, CYP2B6, or CYP1A2 substrate"
same,Subjects with a QTcF >500 ms,[14]; cabozantinib 140 mg qd,No cabozantinib-treated subjects
same,Mean increase in QTcF,"[14]; cabozantinib 140 mg qd orally, 4 weeks after initiating treatment",10 to 15 ms
same,Events of torsades de pointes,[14]; larger safety database (approximately 5000 subjects exposed),no events of torsades de pointes
same,Inhibition of P-glycoprotein transport activity,P-glycoprotein,potential to inhibit
same,P-glycoprotein substrate status,P-glycoprotein,unlikely to be a substrate
same,Increase of exposure levels by food,[15],57%
same,Effect of esomeprazole on cabozantinib plasma PK,[16],no clinically-relevant effect
same,Induction of cytochrome P450 enzymes,cytochrome P450 enzymes,unlikely to Induce
same,Sensitivity of tumor cells to T-cell-mediated killing,[17],greater sensitivity
same,Tumor-cell expression of major histocompatibility complex (MHC) class 1 antigen,[17],increased tumor-cell expression
